# US5416090A, “Method of treating inflammation” (priority 1992, dated 1995)
# Where two headings read alike, the source gives them in different places.
# Legend:
# [1] = system: delayed type hypersensitivity (picryl chloride induced foot pad swelling); experiment: Murine delayed type hypersensitivity (DTH) response, picryl chloride; assay type: in vivo, mouse (Balb/c); conditions: for inhibition of DTH response: FIG. 8 legend
# Procedure: The activity of ergoline compounds was also evaluated in a murine delayed-type hypersensitivity (DTH) assay. The DTH assay was performed in substantial accordance with the method set forth in Example 1. Briefly, mice were sensitized by topical administration of picryl chloride on day 1 of the assay. On day 4 paw size was determined and recorded and the paw was then challenged with picryl chloride. The challenged paw was remeasured on day 5 to quantitate the DTH response via the increase in paw size.
# (§1) Male Balb/c mice (Charles River) weighing 20 to 25 g were used in all DTH studies. When adrenalectomized studies were carried out, sham surgery and adrenalectomized mice were obtained from the vendor. Animals were maintained on a 12:12 hour light:dark cycle. Mice were allowed ad lib access for food (Purina lab chow) and water (normal saline for adrenalectomized animals).
# (§2) A DTH response was assessed by measuring the degree of rear foot pad swelling induced by picryl chloride. On day 0, mice were sensitized with 100 μl of 5% picryl chloride (in ethanol), which was applied to a shaved abdomen. Negative control groups were shaved but not sensitized. On day 3, mice were anesthetized with methoxyflurane, and the baseline rear foot pad thickness was measured with a micrometer (Mitutoyo) in μ, and was recorded in duplicate. Fifty μl of picryl chloride was then applied to each pad with a pipet (Rainen) while the animal was unconscious. The negative controls also received picryl chloride at this point to control for primary irritancy. Twenty-four hours later, the mice were sacrificed by CO2 asphyxiation and each rear foot pad was again measured in duplicate, and any evidence of foot pad swelling was calculated. The mean rear foot swelling change of both pads for each animal from days 3 to 4 was used as the index of immune function in the DTH assay.
# (§3) Unless otherwise stated all animals were given four subcutaneous doses of test compound just prior to picryl chloride sensitization on day 0, on day 1 and day 2, and just prior to picryl chloride challenge on day 3. In a few experiments, compounds were administered via oral or intraperitoneal routes. All drugs were delivered as suspensions in 1% carboxy-methylcellulose (also contained 0.8% NaCl, 1% polysorbate-80, 1.4% benzyl alcohol). Carboxymethyl-cellulose (1%) was used in control injections.
# [2] = system: dopamine receptor (DTH response); experiment: Reversal of DTH inhibition by dopamine receptor antagonists; assay type: in vivo, mouse
# Procedure: as §1, §2, §3
# dopamine receptor = experiment: Affinity at the dopamine receptor; assay type: binding
# [3] = system: carrageenan induced paw swelling; experiment: Carrageenan edema model (acute paw inflammation); assay type: in vivo, rat (Lewis)
# inflammatory models = conditions: cited from earlier work
# α adrenergic receptors = conditions: background; cited from earlier work
# D-2 dopamine = conditions: background; cited from earlier work
# Parkinsonism = conditions: background; cited from earlier work
# [4] = system: 5-HT induced paw swelling; experiment: Serotonin (5-HT) induced acute paw inflammation; assay type: in vivo, rat (Lewis); conditions: FIG. 2
# Procedure: In one such model, the acute paw inflammation model, rats were treated with test compounds one hour prior to plantar injection of a 50 μl volume of a phlogistic. Animals were sacrificed and paw weights were determined at a prescribed time interval following the plantar injections. When 1% carrageenan was used as the phlogistic, the time interval between injection and sacrifice was 3 hours. When serotonin (5-hydroxytryptamine (5-HT)) was used, as the phlogistic agent the time interval was one hour. When substance P was used, the time interval was 30 minutes. The acute paw inflammation model is described in more detail in Example 3.
# Male Lewis rats (Charles River or Harlan Sprague Dawley) weighing 180 to 250 g were used in all acute inflammatory studies. Animals were maintained on a 12:12 hour light:dark cycle and were allowed ad lib access for food (Purina lab chow) and water. Experimental groups consisted of 5 or 6 rats.
# Acute paw swelling was induced by the intraplantar injection of phlogistic agents into the left hind paw, with the uninjected right hind paw serving as the comparative control. One hour after dosing with test compound, 50 μl of serotonin (Sigma; 0.005 to 0.2 mg/ml in normal saline) or substance P (Sigma; 0.01 or 0.05 mg/ml in 10% thiorphan in normal saline) or carrageenan (Marine Colloidal or Sigma Type IV; 1% in normal saline) were injected under the skin of the left hind paw, while the animal was restrained in a plastic cone. Negative controls were given 50 μl intradermal injections of normal saline (serotonin or carrageenan assays) or 10% thiorphan (substance P assays) into the left hind paw. One hour following injection of serotonin, or 30 minutes following injection of substance P, or 180 minutes following injection of carrageenan, the animals were sacrificed by CO2 asphyxiation. The right and left hind paws were cut just proximal to the tibiotarsal joint and weighed. The difference in weight between an individual animal's left and right paws were used as an indicator of tissue swelling.
# As indicated above, test compounds are administered as a one hour pretreatment. In one series of experiments, 24 hour and 48 hour drug pretreatment periods were used. Test compounds were dosed intraperitoneally as a suspension in 1% carboxymethylcellulose.
# [5] = system: lipoidal amine induced arthritis; experiment: Lipoidal amine induced polyarthritis (hind paw volume and weight); assay type: in vivo, rat (Lewis); conditions: Rattus norvegicus
# Procedure: Lipoidal amine induced polyarthritis is an animal arthritis model originally described by Chang, Y., et al. in Arthritis and Rheumatism 23:62-71 (1980). The lipoidal amine induced polyarthritis results from injection of N,N-dioctadecyl-N^1,N-bis(2-hydroxyethyl) propanediamine (7.5 mg/kg Lewis rat (220-225 g)), which is suspended in oil, intradermally at the base of the tail.
# corticosterone = experiment: Serum/plasma corticosterone levels in mice; assay type: in vivo, mouse (Balb/C); conditions: FIG. 10 Panel A; 1 and 3 hr. following injection
# From the text: Dopamine agonists are known to elevate circulating glucocorticoid levels, via activation of the hypothalamo-pituitary-adrenal axis. […] Since glucocorticoids are potential endogenous anti-inflammatory substances, this action is one potential mechanism for the anti-inflammatory effect of the ergolines. However, in subsequent inflammation studies, the anti-inflammatory effects of D-1-isopropyl-6-n-propyl-8β-methylthiomethyl ergoline were retained in mice lacking an adrenal gland and therefore devoid of the increase in circulating corticosterone. (FIG. 10B)
# Both Balb/C mice (male, approximately 20 g, Charles Rivers) and Lewis rats (male, approximately 200 g, Charles River or Harlan Sprague Dawley) were used in neuroendocrine studies. Animals were maintained on a 12:12 hour light:dark cycle and were allowed ad lib access for food (Purina lab chow) and water. Experimental groups consisted of 6 to 8 animals.
# After dosing with test compounds, animals were sacrificed by decapitation at 1, 3, 8 or 24 hour intervals. Trunk blood was collected, allowed to clot and serum obtained after centrifugation (3000 rpm for 15 min.). Serum was aliquoted and stored at -70° C. for subsequent radioimmunoassays. Serum prolactin was determined by radioimmunoassay. Serum corticosterone levels were determined with a kit designed for such determinations and obtained from ICN.
# [6] = Table 2, single oral dose 0.1 mg/kg
# [7] = Table 2, single oral dose 0.3 mg/kg
# [8] = Table 2, single oral dose 1.0 mg/kg
# [9] = Table 2, single oral dose 3.0 mg/kg
# [10] = Table 1, single oral dose 30.0 mg/kg
# [11] = Table 2, single oral dose 30.0 mg/kg
# [12] = Table 1, single oral dose 0.3 mg/kg
# [13] = Table 1, single oral dose 1.0 mg/kg
# [14] = Table 1, single oral dose 3.0 mg/kg
# [15] = Table 1, single oral dose 10.0 mg/kg
# [16] = Table 2, single oral dose 0.01 mg/kg
# [17] = Table 2, single oral dose 0.03 mg/kg
structure (smiles),measurement,setting,value
"CCCN1CC(CO)=C[C@H]2Cc3n[nH]cc3C[C@@H]21 (relative stereo) [Compound 9, 7-(5-n-propyl-trans-4,4a,5,6,8a,9-hexahydro-2H-pyrazolo[3,4-g)quinoline) methanol]",reduction of paw swelling (DTH),[1]; 3 mg/kg,statistically significant
same,reduction of paw swelling (DTH),[1]; 10 mg/kg,statistically significant
same,inhibition of DTH response,[1],inhibition
O=c1[nH]c2ccccc2n1CCCN1CCC(n2c(=O)[nH]c3cc(Cl)ccc32)CC1 [Domperidone],effect on anti-inflammatory activity of D-1-isopropyl-6-n-propyl-8β-methylthiomethyl ergoline,[2]; FIG. 9 Panel B,reversed the anti-inflammatory activity
CCCCCN1C[C@H](CSC)C[C@@H]2c3cccc4[nH]cc(c34)C[C@H]21 [D-6-n-pentyl-8β-methylthiomethyl ergoline],affinity at the dopamine receptor,dopamine receptor,minimal affinity
same,anti-inflammatory activity,[1]; FIGS. 7-9A studies,no anti-inflammatory activity
CCN1CCCC1CNC(=O)c1cc(S(N)(=O)=O)ccc1OC (stereo not drawn) [Sulpiride],effect on inflammatory response in animals given 10 mg/kg of compound 10,"[2]; FIG. 9 Panel C, sulpiride 3, 10 and 30 mg/kg",partially restored the inflammatory response
"CC(C)CC1C(=O)N2CCCC2C2(O)OC(NC(=O)C3C=C4c5cccc6[nH]c(Br)c(c56)CC4N(C)C3)(C(C)C)C(=O)N12 (stereo not drawn) [Bromocriptine, α-bromo-ergocryptine]",% Inhibition,[3]; [6],0%
same,Paw Weight Difference,[3]; [6],0.923 ± 0.039 g
same,% Inhibition,[3]; [7],0%
same,Paw Weight Difference,[3]; [7],0.937 ± 0.060 g
same,% Inhibition,[3]; [8],0%
same,Paw Weight Difference,[3]; [8],0.803 ± 0.046 g
same,% Inhibition,[3]; [9],0%
same,Paw Weight Difference,[3]; [9],0.931 ± 0.067 g
same,activity in the acute inflammation model,"[3]; doses as high as 3 mg/kg, po",no activity
same,basis of activity in inflammatory models of the literature,inflammatory models,due to immunosuppressive activity
same,action at α adrenergic receptors,α adrenergic receptors,act at α adrenergic receptors
same,D-2 dopamine agonist activity,D-2 dopamine,D-2 dopamine agonists
"CCCN1CCC[C@H]2Cc3nc(N)ncc3C[C@@H]21 (racemic) [Compound 8, trans-(±)-2-amino-6-n-propyl-5,5a,6,7,8,9,9a,10-octahydropyrimido[4,5-g] quinoline]",reduction of paw swelling (DTH),[1]; 1 mg/kg,statistically significant decrease in inflammation
same,inhibition of DTH response,[1],lack of inhibition
"CCCN1CCC[C@H]2Cc3nc(N)sc3C[C@@H]21 (racemic) [Compound 6, trans-(±)-2-amino-5-n-propyl-4,4a,5,6,7,8,8a,9-octahydrothiazolo [4,5-g] quinoline]",reduction of paw swelling (DTH),[1]; 10 mg/kg,statistically significant
CC(C(=O)O)c1cccc(Oc2ccccc2)c1 (stereo not drawn) [Fenoprofen],effectiveness in suppressing inflammation compared with pergolide,[3]; 30 mg/kg,not as effective as pergolide
same,% Inhibition,[3]; [10],52%
same,Paw Weight Difference,[3]; [10],0.353 ± 0.043 g
same,% Inhibition,[3]; [11],55%
same,Paw Weight Difference,[3]; [11],0.379 ± 0.028 g
CCCN1C[C@H](CSC)C[C@@H]2c3cccc4[nH]cc(c34)C[C@H]21 [Compound 2],% Inhibition,[3]; [12],60%
same,Paw Weight Difference,[3]; [12],0.290 ± 0.028 g
same,% Inhibition,[3]; [13],60%
same,Paw Weight Difference,[3]; [13],0.295 ± 0.019 g
same,% Inhibition,[3]; [14],60%
same,Paw Weight Difference,[3]; [14],0.292 ± 0.017 g
same,% Inhibition,[3]; [15],60%
same,Paw Weight Difference,[3]; [15],0.293 ± 0.018 g
same,% Inhibition,[3]; [16],1%
same,Paw Weight Difference,[3]; [16],0.820 ± 0.033 g
same,% Inhibition,[3]; [17],0%
same,Paw Weight Difference,[3]; [17],1.009 ± 0.056 g
same,% Inhibition,[3]; [6],11%
same,Paw Weight Difference,[3]; [6],0.751 ± 0.045 g
same,% Inhibition,[3]; [7],63%
same,Paw Weight Difference,[3]; [7],0.313 ± 0.045 g
same,anti-inflammatory properties,[3]; Tables 1 and 2,significant anti-inflammatory properties
same,effect on symptoms of Parkinsonism,Parkinsonism,effective in the treatment of some symptoms of Parkinsonism
same,effect on 5-HT induced paw swelling,[4],diminish 5-HT induced paw swelling
same,minimal effective dose,"[5]; read-out: dosage giving statistically significant decrease in paw volume, FIG. 1 Panel A",≥ 3 mg/kg
same,minimal effective dose,"[5]; read-out: dosage giving statistically significant decrease in paw weight, FIG. 1 Panel B",≥ 3 mg/kg
same,action at α adrenergic receptors,α adrenergic receptors,act at α adrenergic receptors
same,reduction of paw swelling (DTH),[1]; 1 mg/kg,significantly reduced paw swelling
same,reduction of paw swelling (DTH),[1]; 3 mg/kg,significantly reduced paw swelling
same,reduction of paw swelling (DTH),[1]; 10 mg/kg,significantly reduced paw swelling
same,D-2 dopamine agonist activity,D-2 dopamine,D-2 dopamine agonists
"CCCN1C[C@H](CSC)C[C@@H]2c3cccc4[nH]nc(c34)C[C@H]21 [Compound 4, D-2-aza-6-n-propyl-8β-methylthiomethyl ergoline]",reduction of paw swelling (DTH),[1]; 1 mg/kg,reduced paw swelling
same,reduction of paw swelling (DTH),[1]; 3 mg/kg,statistically significant
same,reduction of paw swelling (DTH),[1]; 10 mg/kg,statistically significant
"CCCN1CCC[C@H]2Cc3nc(N)ccc3C[C@@H]21 (relative stereo) [Compound 7, trans-(±)-2-amino-6-propyl-5,5a,6,7,8,9,9a,10-octahydropyrido [2-3 g] quinoline]",reduction of paw swelling (DTH),[1]; 10 mg/kg,statistically significant
"CCCN1CC(CO)CC2Cc3n[nH]cc3CC21 (stereo not drawn) [Compound 10, 7-(5-n-propyl-trans-4,4a,5,6,7,8,8a, 9-Octahydro-2H-pyrazolo[3,4-g]quinoline) methanol]",reduction of paw swelling (DTH),[1]; 3 mg/kg,statistically significant
same,reduction of paw swelling (DTH),[1]; 10 mg/kg,statistically significant
same,effect on plasma corticosterone,corticosterone,increase plasma cortiosterone
